Measured values reported in patent US8546343B2, “Aminoglycoside antibiotics targeting bacterial 16S ribosomal RNA” (Eidgenoessische Technische Hochschule Zurich, priority 2007, dated 2013).
In brackets after ≈: the same amount, converted by molar mass.

Tests used:
[1] = tested on: M. smegmatis ΔrrnB (bacterial ribosomes); assay: MIC, recombinant M. smegmatis with bacterial (wild-type) ribosomes; assay type: cell-based, Mycobacterium smegmatis; settings: 72 h at 37° C.
Summary of the method: (§1)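 M. smegmatis single-rRNA-operon strain carrying the indicated 16S rRNA decoding-site alleles, introduced into the chromosomal operon and confirmed by sequencing. Colony-purified cultures were grown in LB with 0.05% Tween 80 and started at OD600 0.025. MIC was read in microtiter format against twofold drug dilutions.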

[2] = tested on: M. smegmatis ΔrrnB 1408G (16S rRNA position 1408 G, eukaryotic cytosolic ribosomes); assay: MIC, recombinant M. smegmatis with mutant ribosomes 1408G; assay type: cell-based, Mycobacterium smegmatis; settings: M. smegmatis ΔrrnB 1408G mutant ribosomes; 72 h at 37° C.
Summary of the method: as §1

[3] = tested on: M. smegmatis ΔrrnB 1491A (16S rRNA position 1491 A, eukaryotic cytosolic ribosomes); assay: MIC, recombinant M. smegmatis with mutant ribosomes 1491A; assay type: cell-based, Mycobacterium smegmatis; settings: M. smegmatis ΔrrnB 1491A mutant ribosomes; 72 h at 37° C.
Summary of the method: as §1

[4] = tested on: M. smegmatis ΔrrnB 1491C (16S rRNA position 1491 C, eukaryotic mitochondrial ribosome); assay: MIC, recombinant M. smegmatis with mutant ribosomes 1491C; assay type: cell-based, Mycobacterium smegmatis; settings: M. smegmatis ΔrrnB 1491C mutant ribosomes; 72 h at 37° C.
Summary of the method: as §1

[5] = tested on: AG011 Staph. aureus clinical isolate; assay: Standard MIC assay, AG011; assay type: cell-based, Staphylococcus aureus
Summary of the method: (§2)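 Compounds were tested in standard MIC assays. The value reported is the minimal concentration that inhibited bacterial growth in vitro.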

[6] = tested on: AG013 Staph. epi. clinical isolate; assay: Standard MIC assay, AG013; assay type: cell-based, Staphylococcus epidermidis
Summary of the method: as §2

[7] = tested on: AG014 Staph. epi. clinical isolate; assay: Standard MIC assay, AG014; assay type: cell-based, Staphylococcus epidermidis
Summary of the method: as §2

AG016 S. aureus BM3002 = assay: Standard MIC assay, AG016; assay type: cell-based, Staphylococcus aureus
Summary of the method: as §2

[8] = tested on: AG015 S. aureus BM3002 (ANT4′); assay: Standard MIC assay, AG015; assay type: cell-based, Staphylococcus aureus
Summary of the method: as §2

AG017 E. faecalis JH2-2 = assay: Standard MIC assay, AG017; assay type: cell-based, Enterococcus faecalis
Summary of the method: as §2

[9] = tested on: AG019 E. faecalis JH2-2 (APH2″ AAC6′); assay: Standard MIC assay, AG019; assay type: cell-based, Enterococcus faecalis
Summary of the method: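 Standard in vitro susceptibility test; MIC taken as the least drug concentration at which bacterial growth is inhibited.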

[10] = tested on: AG001 E. coli clinical isolate; assay: Standard MIC assay, AG001; assay type: cell-based, Escherichia coli
Experimental: (§3) Selected compounds of the present invention were tested for antibiotic susceptibility using clinical isolates of Staphylococci, Enterococci and Escherichia coli as well as strains carrying defined resistance determinants and compared to well known antibiotics of the state of the art. Drug susceptibility was determined in standard MIC assays, i.e. by determination of the minimal drug concentration required to inhibit bacterial growth in vitro.

[11] = tested on: AG002 E. coli clinical isolate; assay: Standard MIC assay, AG002; assay type: cell-based, Escherichia coli
Experimental: as §3

[12] = tested on: AG003 E. coli clinical isolate; assay: Standard MIC assay, AG003; assay type: cell-based, Escherichia coli
Experimental: as §3

[13] = tested on: AG004 E. coli clinical isolate; assay: Standard MIC assay, AG004; assay type: cell-based, Escherichia coli
Experimental: as §3

AG006 E. coli BM13 = assay: Standard MIC assay, AG006; assay type: cell-based, Escherichia coli
Experimental: as §3

[14] = tested on: AG007 E. coli BM13 (AAC3); assay: Standard MIC assay, AG007; assay type: cell-based, Escherichia coli
Experimental: as §3

[15] = tested on: AG008 E. coli BM13 (ANT2″); assay: Standard MIC assay, AG008; assay type: cell-based, Escherichia coli
Experimental: as §3

[16] = tested on: AG009 E. coli BM13 AAC(6′)-1B; assay: Standard MIC assay, AG009; assay type: cell-based, Escherichia coli
Experimental: as §3

NCC1OC(OC2C(CO)OC(OC3C(O)C(N)CC(N)C3OC3OC(CO)C(OCc4ccccc4)C(O)C3N)C2O)C(N)C(O)C1O (centres unmarked) [Compound 11, 4′-O-Benzylparomomycin]
minimal inhibitory concentrations ΔrrnB [1]: 4 µg/mL | minimal inhibitory concentrations ΔrrnB 1408G [2]: >512 µg/mL | minimal inhibitory concentrations ΔrrnB 1491A [3]: ≧512 μg/ml | minimal inhibitory concentrations ΔrrnB 1491C [4]: >512 µg/mL | MIC ([5]; Staphylococcus aureus, read-out: Minimal inhibitory concentrations AG011): 8 µg/mL (≈ 11.3 µM) | MIC ([6]; Staphylococcus epidermidis, read-out: Minimal inhibitory concentrations AG013): 16 µg/mL (≈ 22.7 µM) | MIC ([7]; Staphylococcus epidermidis, read-out: Minimal inhibitory concentrations AG014): 8 µg/mL (≈ 11.3 µM) | MIC (AG016 S. aureus BM3002; Staphylococcus aureus, read-out: Minimal inhibitory concentrations AG016): 16 to 32 µg/mL (≈ 22.7 to 45.3 µM) | MIC ([8]; Staphylococcus aureus, read-out: Minimal inhibitory concentrations AG015): 32 µg/mL (≈ 45.3 µM) | MIC (AG017 E. faecalis JH2-2; Enterococcus faecalis, read-out: Minimal inhibitory concentrations AG017): 32 to 64 µg/mL (≈ 45.3 to 90.7 µM) | MIC ([9]; Enterococcus faecalis, read-out: Minimal inhibitory concentrations AG019): > 256 µg/mL | MIC ([10]; Escherichia coli, read-out: Minimal inhibitory concentrations AG001): 64 µg/mL (≈ 90.7 µM) | MIC ([11]; Escherichia coli, read-out: Minimal inhibitory concentrations AG002): 32 to 64 µg/mL (≈ 45.3 to 90.7 µM) | MIC ([12]; Escherichia coli, read-out: Minimal inhibitory concentrations AG003): 32 to 64 µg/mL (≈ 45.3 to 90.7 µM) | MIC ([13]; Escherichia coli, read-out: Minimal inhibitory concentrations AG004): 64 µg/mL (≈ 90.7 µM) | MIC (AG006 E. coli BM13; Escherichia coli, read-out: Minimal inhibitory concentrations AG006): 32 µg/mL (≈ 45.3 µM) | MIC ([14]; Escherichia coli, read-out: Minimal inhibitory concentrations AG007): 32 µg/mL (≈ 45.3 µM) | MIC ([15]; Escherichia coli, read-out: Minimal inhibitory concentrations AG008): 64 to 128 µg/mL (≈ 90.7 to 181 µM) | MIC ([16]; Escherichia coli, read-out: Minimal inhibitory concentrations AG009): 64 to 128 µg/mL (≈ 90.7 to 181 µM)

NC[C@@H]1O[C@H](O[C@H]2[C@@H](O)[C@H](O[C@@H]3[C@@H](O)[C@H](N)C[C@H](N)[C@H]3O[C@H]3O[C@H](CO)[C@@H](OCc4ccc(Cl)cc4)[C@H](O)[C@H]3N)O[C@@H]2CO)[C@H](N)[C@@H](O)[C@@H]1O [Compound 19a, 4′-p-chlorobenzylparomomycin]
minimal inhibitory concentrations ΔrrnB [1]: 2 µg/mL | minimal inhibitory concentrations ΔrrnB 1408G [2]: ≧512 μg/ml | minimal inhibitory concentrations ΔrrnB 1491A [3]: ≧512 μg/ml | minimal inhibitory concentrations ΔrrnB 1491C [4]: >512 µg/mL | Minimal inhibitory concentrations AG011 [5]: 2 µg/mL (≈ 2.7 µM) | Minimal inhibitory concentrations AG013 [6]: 4 µg/mL (≈ 5.4 µM) | Minimal inhibitory concentrations AG014 [7]: 2 µg/mL (≈ 2.7 µM) | Minimal inhibitory concentrations AG016 (AG016 S. aureus BM3002): 4 µg/mL (≈ 5.4 µM) | Minimal inhibitory concentrations AG015 ([8]; S. aureus BM3002 (ANT4′)): 8 to 16 µg/mL | Minimal inhibitory concentrations AG017 (AG017 E. faecalis JH2-2): 8 to 16 µg/mL | Minimal inhibitory concentrations AG019 ([9]; E. faecalis JH2-2 (APH2″ AAC6′)): 32 to 64 µg/mL | Minimal inhibitory concentrations AG001 [10]: 8 to 16 µg/mL | Minimal inhibitory concentrations AG002 [11]: 16 µg/mL (≈ 21.6 µM) | Minimal inhibitory concentrations AG003 [12]: 8 to 16 µg/mL | Minimal inhibitory concentrations AG004 [13]: 8 to 16 µg/mL | Minimal inhibitory concentrations AG006 (AG006 E. coli BM13): 8 to 16 µg/mL | Minimal inhibitory concentrations AG007 ([14]; E. coli BM13 (AAC3)): 8 to 16 µg/mL | Minimal inhibitory concentrations AG008 ([15]; E. coli BM13 (ANT2″)): 8 to 16 µg/mL | Minimal inhibitory concentrations AG009 ([16]; E. coli BM13 AAC(6′)-1B): 32 µg/mL (≈ 43.2 µM)
